One series has as its system Edwardsiella tarda. The series can be described thus: Antimicrobial activity against Edwardsiella tarda QDIO-2 measured after 24 hrs by XTT assay. Format: functional. Conditions: QDIO-2, 24 h. For orientation: Formazan colour is commonly taken as a measure of viable cells.
In another series the test system is Micrococcus luteus. The series can be described thus: Antimicrobial activity against Micrococcus luteus QDIO-3 measured after 24 hrs by XTT assay. Conditions: QDIO-3, 24 h. Format: functional.
For the next series, the system named is Escherichia coli. Briefly: Antimicrobial activity against Escherichia coli EMBLC-1 measured after 24 hrs by XTT assay. In kind it is functional. The conditions noted are these: EMBLC-1, 24 h.
The next series has as its system Staphylococcus aureus. The series can be described thus: Antimicrobial activity against Staphylococcus aureus EMBLC-2 measured after 24 hrs by XTT assay. Format: functional. The conditions noted are these: EMBLC-2, 24 h.
The next series deals with Aeromonas hydrophila. Briefly: Antimicrobial activity against Aeromonas hydrophila QDIO-1 measured after 24 hrs by XTT assay. In kind it is functional. The conditions noted are these: QDIO-1, 24 h.
For another series, the system named is Pseudomonas aeruginosa. Briefly: Antimicrobial activity against Pseudomonas aeruginosa QDIO-4 measured after 24 hrs by XTT assay. In kind it is functional. The conditions noted are these: QDIO-4, 24 h.
The test system of another series is Vibrio anguillarum. Briefly: Antimicrobial activity against Vibrio anguillarum QDIO-6 measured after 24 hrs by XTT assay. In kind it is functional. Conditions: QDIO-6, 24 h.
In a further series the test system is Vibrio harveyi. The series can be described thus: Antimicrobial activity against Vibrio harveyi QDIO-7 measured after 24 hrs by XTT assay. Format: functional. Conditions: QDIO-7, 24 h.
The next series has as its system Vibrio parahaemolyticus. The series can be described thus: Antimicrobial activity against Vibrio parahaemolyticus QDIO-8 measured after 24 hrs by XTT assay. In kind it is functional. The conditions noted are these: QDIO-8, 24 h.
The test system of the next series is Alternaria brassicae. The series can be described thus: Antimicrobial activity against Alternaria brassicae QDAU-1 measured after 24 hrs by XTT assay. Format: functional. The conditions noted are these: QDAU-1, 24 h.
Series [1] has as its system Colletotrichum gloeosporioides. The series can be described thus: Antimicrobial activity against Colletotrichum gloeosporioides QDAU-2 by XTT assay. Format: functional.
For the next series, the system named is Fusarium graminearum. Briefly: Antimicrobial activity against Fusarium graminearum QDAU-4 measured after 24 hrs by XTT assay. Format: functional. The conditions noted are these: QDAU-4, 24 h.
A further series has as its system Gaeumannomyces graminis. The series can be described thus: Antimicrobial activity against Gaeumannomyces graminis QDAU-3 measured after 24 hrs. In kind it is functional. The conditions noted are these: QDAU-3, 24 h.
A short description of series [2]: Toxicity in brine shrimp larvae assessed as lethality measured after 24 hrs by macroscopic analysis. Conditions: artemia salina; read-out: LD50.

SMILES strings stand for the structures. Values after ≈ are worked out from the molar mass of the structure shown. Where only a bound is given, the exact number is not on record here.

In general, MIC refers to the smallest concentration in the dilution series that meets the test's criterion for growth inhibition. Lower therefore signals a more susceptible organism. Turning to `C=C[C@]1(C)C=C2C(=O)C=C3C(C)(C)[C@H](O)CC[C@]3(O)[C@H]2CC1`, the MIC against Edwardsiella tarda was 4 µg/mL (≈ 13.2 µM); against Micrococcus luteus it was above 32 µg/mL; with Escherichia coli, above 32 µg/mL; in the series with Staphylococcus aureus, 32 µg/mL (≈ 106 µM); against Aeromonas hydrophila, 16 µg/mL (≈ 52.9 µM); with Pseudomonas aeruginosa it was above 32 µg/mL. The minimal inhibitory concentration (MIC) against Vibrio anguillarum is 32 µg/mL (≈ 106 µM); in the series with Vibrio harveyi it was 8 µg/mL (≈ 26.5 µM); in the series on Vibrio parahaemolyticus, 32 µg/mL (≈ 106 µM); against Alternaria brassicae it was above 32 µg/mL; in series [1], above 32 µg/mL; against Fusarium graminearum, above 32 µg/mL. In addition, the MIC against Gaeumannomyces graminis was above 32 µg/mL. The LC50 at 24 h in series [2] is above 10 µg/mL.
Consider `C=C[C@@]1(C)CCc2c3c(cc(O)c2[C@H]1O)C(C)(C)[C@H](O)CC3`, for which the MIC with Edwardsiella tarda is above 32 µg/mL; in the series with Micrococcus luteus, above 32 µg/mL; in the series on Escherichia coli it was 16 µg/mL (≈ 52.9 µM); with Staphylococcus aureus it was 32 µg/mL (≈ 106 µM); with Aeromonas hydrophila, above 32 µg/mL; in the series on Pseudomonas aeruginosa, above 32 µg/mL. For the same compound, the MIC against Vibrio anguillarum was above 32 µg/mL; against Vibrio harveyi it was 4 µg/mL (≈ 13.2 µM); against Vibrio parahaemolyticus, above 32 µg/mL; against Alternaria brassicae it was above 32 µg/mL; in [1] it was 32 µg/mL (≈ 106 µM); in the series on Fusarium graminearum, above 32 µg/mL. For the same compound, it took 32 µg/mL (≈ 106 µM) to inhibit growth in the series with Gaeumannomyces graminis (MIC). Further, in series [2], the LC50 at 24 h is above 10 µg/mL.
Take `C=C[C@]1(C)C=C2C(=O)C=C3C(C)(C)CCC[C@]3(O)[C@@]2(O)CC1`: the MIC with Edwardsiella tarda was above 32 µg/mL; against Micrococcus luteus, 4 µg/mL (≈ 13.2 µM); in the series with Escherichia coli, 32 µg/mL (≈ 106 µM); in the series on Staphylococcus aureus it was above 32 µg/mL; with Aeromonas hydrophila it was above 32 µg/mL; with Pseudomonas aeruginosa it was 32 µg/mL (≈ 106 µM). Besides, the MIC against Vibrio anguillarum was above 32 µg/mL; against Vibrio harveyi, above 32 µg/mL; in the series on Vibrio parahaemolyticus, above 32 µg/mL; against Alternaria brassicae it was 8 µg/mL (≈ 26.5 µM); in [1], above 32 µg/mL; against Fusarium graminearum, 2 µg/mL (≈ 6.61 µM). The compound further came in with an MIC with Gaeumannomyces graminis of 32 µg/mL (≈ 106 µM). Besides, the LC50 at 24 h in [2] is above 10 µg/mL.
Consider `C=C[C@@]1(C)CCc2c3c(cc(O)c2[C@@H]1O)C(C)(C)[C@H](O)CC3`, for which the MIC in the series with Edwardsiella tarda was above 32 µg/mL; in the series with Micrococcus luteus, 16 µg/mL (≈ 52.9 µM); in the series on Escherichia coli, 32 µg/mL (≈ 106 µM); in the series on Staphylococcus aureus it was above 32 µg/mL; with Aeromonas hydrophila it was above 32 µg/mL; with Pseudomonas aeruginosa it was 4 µg/mL (≈ 13.2 µM). Moreover, the MIC against Vibrio anguillarum is 32 µg/mL (≈ 106 µM); against Vibrio harveyi, above 32 µg/mL; against Vibrio parahaemolyticus, 32 µg/mL (≈ 106 µM); with Alternaria brassicae, 32 µg/mL (≈ 106 µM); in series [1], 32 µg/mL (≈ 106 µM); in the series on Fusarium graminearum, 4 µg/mL (≈ 13.2 µM). Inhibition of growth in the series with Gaeumannomyces graminis (MIC) required 32 µg/mL (≈ 106 µM). The LC50 at 24 h in series [2] was above 10 µg/mL.
On to `O=C(N[C@H](CO)[C@H](O)c1ccc([N+](=O)[O-])cc1)C(Cl)Cl` [CHLORAMPHENICOL], for which the minimum inhibitory concentration (MIC) against Edwardsiella tarda stood at 8 µg/mL (≈ 24.8 µM); against Micrococcus luteus, 8 µg/mL (≈ 24.8 µM); in the series with Escherichia coli it was 4 µg/mL (≈ 12.4 µM); against Staphylococcus aureus, 0.5 µg/mL (≈ 1.55 µM); against Aeromonas hydrophila, 4 µg/mL (≈ 12.4 µM); against Pseudomonas aeruginosa, 4 µg/mL (≈ 12.4 µM). The MIC in the series with Vibrio anguillarum came out at 0.5 µg/mL (≈ 1.55 µM); against Vibrio harveyi it was 4 µg/mL (≈ 12.4 µM); against Vibrio parahaemolyticus, 1 µg/mL (≈ 3.09 µM).
In the case of `C[C@@H]1[C@H](O)[C@@H](C)/C=C/C=C/C=C/C=C/C=C/C=C/C=C/[C@H](O[C@@H]2O[C@H](C)[C@@H](O)[C@H](N)[C@@H]2O)C[C@@H]2O[C@](O)(C[C@@H](O)C[C@@H](O)[C@H](O)CC[C@@H](O)C[C@@H](O)CC(=O)O[C@H]1C)C[C@H](O)[C@H]2C(=O)O` [AMPHOTERICIN B], the MIC against Alternaria brassicae amounted to 32 µg/mL (≈ 34.6 µM); in [1], 32 µg/mL (≈ 34.6 µM); in the series with Fusarium graminearum it was 8 µg/mL (≈ 8.66 µM); with Gaeumannomyces graminis, 64 µg/mL (≈ 69.3 µM).
As to `C=C[C@]1(C)C=C2C(=O)C=C3C(C)(C)CC[C@@H](O)[C@]3(O)[C@H]2CC1`, the minimum inhibitory concentration (MIC) with Edwardsiella tarda was above 32 µg/mL; in the series on Micrococcus luteus it was 16 µg/mL (≈ 52.9 µM); with Escherichia coli, above 32 µg/mL; against Staphylococcus aureus, above 32 µg/mL; in the series on Aeromonas hydrophila it was above 32 µg/mL; against Pseudomonas aeruginosa it was above 32 µg/mL. Also, the minimal inhibitory concentration (MIC) against Vibrio anguillarum was above 32 µg/mL; against Vibrio harveyi, above 32 µg/mL; against Vibrio parahaemolyticus it was 32 µg/mL (≈ 106 µM); against Alternaria brassicae, 32 µg/mL (≈ 106 µM); in series [1], above 32 µg/mL; against Fusarium graminearum it was above 32 µg/mL. Further, the MIC in the series on Gaeumannomyces graminis was above 32 µg/mL. The LC50 at 24 h in series [2] is above 10 µg/mL.
Turning to `C=C[C@@]1(C)CCc2c(c(O)cc3c2CCCC3(C)C)C1`, the MIC against Edwardsiella tarda is 16 µg/mL (≈ 59.2 µM); in the series on Micrococcus luteus it was above 32 µg/mL; in the series on Escherichia coli, above 32 µg/mL; with Staphylococcus aureus, 8 µg/mL (≈ 29.6 µM); against Aeromonas hydrophila it was above 32 µg/mL; against Pseudomonas aeruginosa, above 32 µg/mL. Besides, the MIC against Vibrio anguillarum was above 32 µg/mL; in the series on Vibrio harveyi it was above 32 µg/mL; against Vibrio parahaemolyticus it was 4 µg/mL (≈ 14.8 µM); against Alternaria brassicae, above 32 µg/mL; in series [1] it was above 32 µg/mL; in the series on Fusarium graminearum, above 32 µg/mL. The same compound came in with an MIC in the series on Gaeumannomyces graminis of 8 µg/mL (≈ 29.6 µM). The LC50 at 24 h in [2] was above 10 µg/mL.
